In patent publication US20210338665A1, “MEDICAL USE OF PROSTACYCLIN RECEPTOR AGONIST” (CHINESE PLA GENERAL HOSPITAL, priority 2018, published 2021):

System: SD rats in a low-pressure low-oxygen environment
Test: Rat high altitude model in a low-pressure low-oxygen cabin (380 mmHg, simulated altitude of 5,500 meters): cardio-pulmonary function
Format: in vivo
Settings: twice every day for 14 days, compared with the model group; for mean pulmonary arterial pressure (mPAP): P<0.05
Protocol: 40 SD rats (about 200 g, male, clean) are purchased from Beijing Vital River Laboratory Animal Technology Co. Ltd and have the license number of SCXK(Jing)2016-0006. The SD rats are fed in a low-pressure oxygen cabin, and regularly fed with a complete nutritional feed under the conditions of the room temperature of 22 to 25° C. and the humidity of 30% to 50%.
Solvent configuration: 20% of HP-β-CD and 80% of double distilled water, and pH=8.
A blank control group: normal-pressure normal-oxygen feeding
A model group: a low-pressure low-oxygen cabin, and intragastric administration of a solvent
An experimental group A: a low-pressure low-oxygen cabin, and intragastric administration of sc0253 (5 mg/kg) as well as a solvent
An experimental group B: a low-pressure low-oxygen cabin, and intragastric administration of sc0253 (10 mg/kg) as well as a solvent
40 rats are randomly divided into four groups, and each group includes 10 rats. 3 groups are placed into an experiment module, the pressure inside the module is regulated to 380 mmHg, a high altitude environment with an altitude of 5,500 meters is simulated, the experiment module is opened for 1 hour every day so as to add feed and water for animals and carry out corresponding medicine treatment, meanwhile, the environment where the rats are positioned are kept alternate day and night according to a ratio of 12h:12h, and after 14 days, intragastric administration is respectively carried out in which the solvent (the model group), the sc0253 (5 mg/kg) and the solvent (the experimental group A) or the sc0253 (10 mg/kg) and the solvent (the experimental group B) are respectively applied, and the operation is carried out twice every day and continued for 14 days. Rats in the fourth group are placed in the same room to be fed in the normal-pressure normal-oxygen environment (the blank control group).
3% pentobarbital sodium (0.2 mL/100 g) is intraperitoneally injected to anesthetize the rats, and ultrasonic detection is carried out. The following ultrasonic data is recorded: right ventricular ejection fraction (RVEF); and right ventricular fractional shortening (RVFS). Then the anesthetized rats are fixed on an operating table in a supine position mode, tracheotomy is carried out, a breathing machine is connected, thoracotomy is carried out to expose the hearts, a catheter is inserted into each right ventricle, right heart catheterization is carried out, and the right ventricular systolic pressure is recorded. Then each catheter is slowly pushed forwards, and can reach a corresponding pulmonary artery through a corresponding right ventricular outflow tract, the pressure waveform of a monitor is observed, and the mean pulmonary arterial pressure mPAP is recorded. The rats are executed, the hearts are taken out, the atrial tissue and attached fat are removed, left and right ventricles are separated, moisture is sucked up by filter paper, the weights of the right ventricles and the left ventricles are respectively weighed, and (RV/(LV+IS)) is calculated.
All the data is represented by x±s, comparison among the groups is single factor analysis of variance, when P<0.05, it represents that the difference has a statistical significance, and statistical treatment is carried out by adopting an SPSS19.0 software package.

[1] = experimental group B: sc0253 10 mg/kg intragastric, ultrasonic detection, P<0.01

O=C(O)COCC1(F)CCN(c2cncc(N(c3ccccc3)c3ccc(F)cn3)n2)CC1 [sc0253]
mean pulmonary arterial pressure (mPAP) (experimental group A: sc0253 5 mg/kg intragastric): obviously reduced
right ventricular hypertrophy index RV/(LV+OS) (experimental group B: sc0253 10 mg/kg intragastric, P<0.01): obviously reduced
mean pulmonary arterial pressure (mPAP) (experimental group B: sc0253 10 mg/kg intragastric): obviously reduced
right ventricular ejection fraction (RVEF) [1]: obviously increased
right ventricular fractional shortening (RVFS) [1]: obviously increased
